In patent US5750531A, “Pyrimidine derivatives and processes for the preparation thereof” (Yuhan Corporation, priority 1994, dated 1998):

Legend:
[1] = molecular target: proton pump(H^+ /K^+ ATPase); assay: Inhibition of proton pump(H^+ /K^+ ATPase) activity; type: biochemical; conditions: pH 6.0, 37° C., 30 minutes preincubation and 30 minutes reaction; read-out: IC50 Test compound
Method in brief: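 Enzyme was preincubated with compound at five concentrations for 30 min at 37° C in Tris-HCl pH 6.0 with Mg2+, K+ and NH4Cl. Reaction ran 30 min at 37° C with ATP and was stopped with trichloroacetic acid. K+-stimulated inorganic phosphate release gave IC50 by Litchfield-Wilcoxon.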

gastric secretion = assay: Inhibition of gastric secretion (pylorus ligation, Shay method); type: in vivo, Male Sprague-Dawley rats; conditions: 20 mg/kg intraduodenally, 5 hours; for Rel. Conc.: acid concentration relative to omeprazole; for Relative Acid Output: acid output relative to omeprazole; for Rel. Vol.: gastric juice volume relative to omeprazole
Method in brief: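 Rats under ether anaesthesia had the pylorus ligated, and the stomach was removed 5 h later. Gastric juice was centrifuged at 1,000 g, and its volume and acidity were measured. Relative volume, relative acid concentration and relative acid output […] were then calculated.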

| IC50 [1] [µM] | SMILES | Rel. Conc. (gastric secretion) | Relative Acid Output (gastric secretion) | Rel. Vol. (gastric secretion) |
| --- | --- | --- | --- | --- |
| 3.5 | Cc1nc(N2CCc3ccccc3[C@@H]2C)nc(Nc2ccc(F)cc2)c1C.Cl [Example 70, (S)-5,6-dimethyl-4-(4-fluorophenylamino)-2-(1-methyl-1,2,3,4-tetrahydroisoquinolin-2-yl)pyrimidine hydrochloride] | 0.22 | 0.61 | 1.3 |
| ~15 | Cc1cc(Nc2ccc(F)cc2)nc(N2CCc3ccsc3C2C)n1.Cl (stereo not drawn) [Example 60, 6-methyl-4-(4-fluorophenylamino)-2-(7-methyl-4,5,6,7-tetrahydrothieno[2,3-c]pyridin-6-yl)pyrimidine hydrochloride] | 0.28 | 0.65 | 0.65 |
| 1 | Cc1cc(F)ccc1Nc1nc(N2CCc3ccccc3C2C)nc(C)c1C.Cl (stereo not drawn) [Example 65, 5,6-dimethyl-4-(2-methyl-4-fluorophenylamino)-2-(1-methyl-1,2,3,4-tetrahydroisoquinolin-2-yl)pyrimidine hydrochloride] | 0.35 | 0.71 | 1.43 |
| 0.9 | Cc1cc(F)ccc1Nc1nc(N2CCc3ccccc3[C@H]2C)nc(C)c1C.Cl [Example 66, (R)-5,6-dimethyl-4-(2-methyl-4-fluorophenylamino)-2-(1-methyl-1,2,3,4-tetrahydroisoquinolin-2-yl)pyrimidine hydrochloride] | 0.47 | 0.85 | 1.49 |
| 8.5 | Cc1nc(N2CCc3ccsc3C2C)nc(Nc2ccc(F)cc2)c1C.Cl (stereo not drawn) [Example 78, 5,6-dimethyl-2-(7-methyl-4,5,6,7-tetrahydrothieno[2,3-c]pyridin-6-yl)-4-(4-fluorophenylamino)pyrimidine hydrochloride] | 1.75 | 1.09 | 1.06 |
| 1.1 | Cc1cc(F)ccc1Nc1nc(N2CCc3ccccc3C2C)nc2c1CCCC2.Cl (stereo not drawn) [Example 82, 4-(2-Methyl-4-fluorophenylamino)-2-(1-methyl-1,2,3,4-tetrahydroisoquinolin-2-yl)-5,6,7,8-tetrahydroquinazoline hydrochloride] | 0.59 | 0.79 | 0.69 |
| ~12.5 | Cc1cc(Nc2ccc(F)cc2C)nc(N2CCc3ccsc3C2C)n1.Cl (stereo not drawn) [Example 59, 6-methyl-4-(2-methyl-4-fluorophenylamino)-2-(7-methyl-4,5,6,7-tetrahydrothieno[2,3-c]pyridin-6-yl)pyrimidine hydrochloride] | 0.25 | 0.56 | 0.51 |

More lines, now with the values behind:

| SMILES | IC50 [1] [µM] | Rel. Conc. (gastric secretion) | Relative Acid Output (gastric secretion) | Rel. Vol. (gastric secretion) |
| --- | --- | --- | --- | --- |
| Cc1ccc(Nc2nc(C)c(C)c(N3CCc4ccccc4C3C)n2)cc1.Cl (stereo not drawn) [Example 25, 5,6-dimethyl-2-(4-methylphenylamino)-4-(1-methyl-1,2,3,4-tetrahydroisoquinolin-2-yl)pyrimidine hydrochloride] | 1.4 | 0.8 | 0.92 | 1.06 |
| CCc1cc(N2CCc3ccccc3C2C)nc(Nc2ccc(F)cc2C)n1.Cl (stereo not drawn) [Example 5, 6-ethyl-2-(2-methyl-4-fluorophenylamino)-4-(1-methyl-1,2,3,4-tetrahydroisoquinolin-2-yl)pyrimidine hydrochloride] | 1.3 | 0.27 | 0.61 | 0.59 |
| Cc1cc(Nc2ccc(F)cc2C)nc(N2CCc3ccccc3C2C)n1.Cl (stereo not drawn) [Example 57, 6-methyl-4-(2-methyl-4-fluorophenylamino)-2-(1-methyl-1,2,3,4-tetrahydroisoquinolin-2-yl)pyrimidine hydrochloride] | 3.3 | 0.27 | 0.61 | 1.2 |
| Cc1nc(Nc2ccc(F)cc2)nc(N2CCc3ccccc3[C@@H]2C)c1C.Cl [Example 17, (S)-5,6-dimethyl-2-(4-fluorophenylamino)-4-(1-methyl-1,2,3,4-tetrahydroisoquinolin-2-yl)pyrimidine hydrochloride] | 1.8 | 0.97 | 0.89 | 0.82 |
| Cc1cc(F)ccc1Nc1nc(C)c(C)c(N2CCc3ccsc3C2C)n1.Cl (stereo not drawn) [Example 55, 5,6-dimethyl-2-(2-methyl-4-fluorophenylamino)-4-(7-methyl-4,5,6,7-tetrahydrothieno[2,3-c]pyridin-6-yl)pyrimidine hydrochloride] | 2.1 | 0.11 | 0.51 | 0.56 |
| CCc1cc(N2CCc3ccccc3C2)nc(Nc2ccc(F)cc2C)n1.Cl [Example 37, 6-ethyl-2-(2-methyl-4-fluorophenylamino)-4-(1,2,3,4-tetrahydroisoquinolin-2-yl)pyrimidine hydrochloride] | 0.7 | 0.42 | 0.82 | 0.82 |
| CCc1cc(N2CCc3ccccc3C2)nc(Nc2ccccc2C)n1.Cl [Example 40, 6-ethyl-2-(2-methylphenylamino)-4-(1,2,3,4-tetrahydroisoquinolin-2-yl)pyrimidine hydrochloride] | 0.7 | 0.36 | 0.74 | 0.71 |
| Cc1nc(Nc2ccc(F)cc2)nc(N2CCc3ccccc3[C@H]2C)c1C.Cl [Example 16, (R)-5,6-dimethyl-2-(4-fluorophenylamino)-4-(1-methyl-1,2,3,4-tetrahydroisoquinolin-2-yl)pyrimidine hydrochloride] | 1.5 | 1.24 | 1.13 | 0.96 |
| Cc1cc(Nc2ccc(F)cc2)nc(N2CCc3ccccc3C2C)n1.Cl (stereo not drawn) [Example 58, 6-methyl-4-(4-fluorophenylamino)-2-(1-methyl-1,2,3,4-tetrahydroisoquinolin-2-yl)pyrimidine hydrochloride] | > 25 | 0.16 | 0.35 | 0.58 |
| Cc1cc(F)ccc1Nc1nccc(N2CCc3ccccc3C2C)n1.Cl (stereo not drawn) [Example 1, 2-(2-methyl-4-fluorophenylamino)-4-(1-methyl-1,2,3,4-tetrahydroisoquinolin-2-yl)pyrimidine hydrochloride] | 5.4 |  | 0.11 | 0.12 |
| CCCc1cc(N2CCc3ccccc3C2C)nc(Nc2ccc(F)cc2C)n1.Cl (stereo not drawn) [Example 9, 2-(2-methyl-4-fluorophenylamino)-4-(1-methyl-1,2,3,4-tetrahydroisoquinolin-2-yl)-6-propylpyrimidine hydrochloride] | ~10 |  | 0.3 | 0.4 |
| Cc1nc(Nc2ccccc2)nc(N2CCc3ccccc3C2C)c1C.Cl (stereo not drawn) [Example 21, 5,6-dimethyl-2-(phenylamino)-4-(1-methyl-1,2,3,4-tetrahydroisoquinolin-2-yl)pyrimidine hydrochloride] | 1.5 | 0.88 | 0.97 | 1.06 |
| CCCc1cc(N2CCc3ccccc3C2C)nc(Nc2ccc(F)cc2)n1.Cl (stereo not drawn) [Example 10, 4-(1-methyl-1,2,3,4-tetrahydroisoquinolin-2-yl)-6-propyl-2-(4-fluorophenylamino)pyrimidine hydrochloride] | 10.6 | 0.47 | 0.55 | 0.58 |
